Results taken from ChEMBL document CHEMBL1201862, “PubChem BioAssay data set” (2004).
Calls of active or inactive are those of the source. For most assays here, no stated cut-off is given here; in the data, actives have a measured IC50 and inactives only a lower limit.

Tests used:
Type in all cases: functional
[1] = biological target: T1, Sentrin-specific protease 8 (Homo sapiens, UniProt Q96LD8); test: SENP8 protease inhibitors, SAR follow-up, biochemical, luminescence (AID 504501)
T1 sequence (Q96LD8 whole entry): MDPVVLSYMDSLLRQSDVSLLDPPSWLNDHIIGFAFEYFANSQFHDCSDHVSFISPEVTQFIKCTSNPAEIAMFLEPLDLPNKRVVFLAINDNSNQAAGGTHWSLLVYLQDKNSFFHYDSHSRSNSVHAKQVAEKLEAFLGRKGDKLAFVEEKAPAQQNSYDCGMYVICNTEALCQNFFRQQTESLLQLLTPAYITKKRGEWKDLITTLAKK

Caspase-3 = biological target: T2, Caspase-3 (Homo sapiens, UniProt P42574); test: SAR Analysis of small molecule inhibitors of Sentrin-specific proteases (SENPs) using a Caspase-3 Selectivity assay. [Related pubchem assays (depositor defined):AID2540, AID2599, AID434973, AID489001]
T2 sequence (P42574 whole entry): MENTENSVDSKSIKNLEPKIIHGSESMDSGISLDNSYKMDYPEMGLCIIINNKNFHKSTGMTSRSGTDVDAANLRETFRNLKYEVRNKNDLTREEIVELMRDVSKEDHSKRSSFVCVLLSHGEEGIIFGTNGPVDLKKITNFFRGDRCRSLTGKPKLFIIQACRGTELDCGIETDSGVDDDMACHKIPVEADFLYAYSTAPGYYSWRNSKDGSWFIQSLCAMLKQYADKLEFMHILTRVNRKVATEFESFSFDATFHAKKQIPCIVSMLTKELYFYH

[2] = biological target: T3, Sentrin-specific protease 6 (Homo sapiens, UniProt Q9GZR1); test: SAR Analysis of small molecule inhibitors of Sentrin-specific protease 6 (SENP6) using a Luminescent assay. [Related pubchem assays (depositor defined):AID2582, AID2599]
T3 sequence (Q9GZR1 whole entry): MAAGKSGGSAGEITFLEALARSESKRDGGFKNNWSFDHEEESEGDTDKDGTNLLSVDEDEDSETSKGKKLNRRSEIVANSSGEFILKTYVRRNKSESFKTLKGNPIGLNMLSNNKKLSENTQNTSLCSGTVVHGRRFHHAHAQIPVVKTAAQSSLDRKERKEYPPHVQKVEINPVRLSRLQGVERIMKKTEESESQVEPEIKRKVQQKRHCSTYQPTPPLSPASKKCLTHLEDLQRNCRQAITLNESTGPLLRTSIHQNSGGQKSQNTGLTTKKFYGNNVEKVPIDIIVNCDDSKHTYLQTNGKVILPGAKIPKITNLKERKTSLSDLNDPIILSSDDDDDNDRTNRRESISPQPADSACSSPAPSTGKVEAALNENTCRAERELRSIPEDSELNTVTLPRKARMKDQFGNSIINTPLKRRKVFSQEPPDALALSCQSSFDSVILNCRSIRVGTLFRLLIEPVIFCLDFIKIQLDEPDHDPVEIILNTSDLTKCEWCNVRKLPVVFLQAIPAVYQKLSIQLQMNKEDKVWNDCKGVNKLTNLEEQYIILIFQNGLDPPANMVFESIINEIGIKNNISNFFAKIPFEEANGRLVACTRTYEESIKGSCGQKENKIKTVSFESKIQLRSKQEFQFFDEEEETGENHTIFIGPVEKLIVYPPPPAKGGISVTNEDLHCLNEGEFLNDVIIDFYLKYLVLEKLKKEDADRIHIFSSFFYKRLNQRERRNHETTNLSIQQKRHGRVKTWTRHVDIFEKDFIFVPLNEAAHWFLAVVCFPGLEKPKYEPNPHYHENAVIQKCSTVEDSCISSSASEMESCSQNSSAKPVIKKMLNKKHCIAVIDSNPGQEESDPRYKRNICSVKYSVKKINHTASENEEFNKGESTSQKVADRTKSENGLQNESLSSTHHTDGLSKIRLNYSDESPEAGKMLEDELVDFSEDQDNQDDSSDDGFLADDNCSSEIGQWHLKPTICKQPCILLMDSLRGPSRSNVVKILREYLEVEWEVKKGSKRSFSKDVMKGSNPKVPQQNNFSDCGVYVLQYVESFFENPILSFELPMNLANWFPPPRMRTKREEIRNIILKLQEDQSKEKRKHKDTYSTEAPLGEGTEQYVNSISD

[3] = biological target: T4, Sentrin-specific protease 7 (Homo sapiens, UniProt Q9BQF6); test: SENP7 protease inhibitors, SAR follow-up, biochemical, luminescence (AID 504497)
T4 sequence (Q9BQF6 whole entry): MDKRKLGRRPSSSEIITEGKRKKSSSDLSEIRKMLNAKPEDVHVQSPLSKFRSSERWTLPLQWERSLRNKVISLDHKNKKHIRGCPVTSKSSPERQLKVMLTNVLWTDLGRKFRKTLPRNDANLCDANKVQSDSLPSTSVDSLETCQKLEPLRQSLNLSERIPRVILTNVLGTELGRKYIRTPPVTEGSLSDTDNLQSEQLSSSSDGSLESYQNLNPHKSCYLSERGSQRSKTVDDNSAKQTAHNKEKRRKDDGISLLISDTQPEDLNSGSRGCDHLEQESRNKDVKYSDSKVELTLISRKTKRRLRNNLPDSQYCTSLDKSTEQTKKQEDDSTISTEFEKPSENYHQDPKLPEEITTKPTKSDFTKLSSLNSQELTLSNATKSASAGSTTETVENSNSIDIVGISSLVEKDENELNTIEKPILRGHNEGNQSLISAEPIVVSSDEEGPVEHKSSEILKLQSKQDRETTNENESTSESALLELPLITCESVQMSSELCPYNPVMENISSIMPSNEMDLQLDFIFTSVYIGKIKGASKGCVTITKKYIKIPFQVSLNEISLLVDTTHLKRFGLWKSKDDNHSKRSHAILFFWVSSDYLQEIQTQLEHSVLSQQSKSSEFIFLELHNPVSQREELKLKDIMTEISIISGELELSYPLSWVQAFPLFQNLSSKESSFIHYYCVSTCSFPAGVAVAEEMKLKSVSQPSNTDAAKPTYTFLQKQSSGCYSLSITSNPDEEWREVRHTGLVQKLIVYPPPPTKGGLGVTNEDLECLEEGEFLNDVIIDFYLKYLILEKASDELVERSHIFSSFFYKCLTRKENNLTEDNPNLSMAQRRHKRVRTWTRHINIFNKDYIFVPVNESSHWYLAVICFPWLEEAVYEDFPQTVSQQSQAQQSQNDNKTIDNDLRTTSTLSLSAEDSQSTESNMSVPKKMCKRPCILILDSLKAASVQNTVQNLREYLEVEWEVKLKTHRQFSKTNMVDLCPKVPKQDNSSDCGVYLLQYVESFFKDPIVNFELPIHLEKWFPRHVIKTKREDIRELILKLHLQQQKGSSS

[4] = HEp-2 cell cytotoxicity, dose response, cytotoxicity control for RSV inhibitor project, HTS (AID 2410); details: human respiratory syncytial virus
[5] = biological target: T5, Ubiquitin-conjugating enzyme E2 N (Homo sapiens, UniProt P61088);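 further: Dose-response confirmation in a TR-FRET assay detecting UBC13-driven polyubiquitin chain formation, inhibition measured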
T5 sequence (P61088 whole entry): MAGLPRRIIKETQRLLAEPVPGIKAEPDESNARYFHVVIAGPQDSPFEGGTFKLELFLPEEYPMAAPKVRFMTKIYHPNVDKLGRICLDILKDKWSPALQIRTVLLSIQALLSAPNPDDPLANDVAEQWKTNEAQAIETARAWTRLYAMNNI

[6] = biological target: T6, Apoptotic protease-activating factor 1 (Homo sapiens, UniProt O14727)
T6 sequence (O14727 whole entry): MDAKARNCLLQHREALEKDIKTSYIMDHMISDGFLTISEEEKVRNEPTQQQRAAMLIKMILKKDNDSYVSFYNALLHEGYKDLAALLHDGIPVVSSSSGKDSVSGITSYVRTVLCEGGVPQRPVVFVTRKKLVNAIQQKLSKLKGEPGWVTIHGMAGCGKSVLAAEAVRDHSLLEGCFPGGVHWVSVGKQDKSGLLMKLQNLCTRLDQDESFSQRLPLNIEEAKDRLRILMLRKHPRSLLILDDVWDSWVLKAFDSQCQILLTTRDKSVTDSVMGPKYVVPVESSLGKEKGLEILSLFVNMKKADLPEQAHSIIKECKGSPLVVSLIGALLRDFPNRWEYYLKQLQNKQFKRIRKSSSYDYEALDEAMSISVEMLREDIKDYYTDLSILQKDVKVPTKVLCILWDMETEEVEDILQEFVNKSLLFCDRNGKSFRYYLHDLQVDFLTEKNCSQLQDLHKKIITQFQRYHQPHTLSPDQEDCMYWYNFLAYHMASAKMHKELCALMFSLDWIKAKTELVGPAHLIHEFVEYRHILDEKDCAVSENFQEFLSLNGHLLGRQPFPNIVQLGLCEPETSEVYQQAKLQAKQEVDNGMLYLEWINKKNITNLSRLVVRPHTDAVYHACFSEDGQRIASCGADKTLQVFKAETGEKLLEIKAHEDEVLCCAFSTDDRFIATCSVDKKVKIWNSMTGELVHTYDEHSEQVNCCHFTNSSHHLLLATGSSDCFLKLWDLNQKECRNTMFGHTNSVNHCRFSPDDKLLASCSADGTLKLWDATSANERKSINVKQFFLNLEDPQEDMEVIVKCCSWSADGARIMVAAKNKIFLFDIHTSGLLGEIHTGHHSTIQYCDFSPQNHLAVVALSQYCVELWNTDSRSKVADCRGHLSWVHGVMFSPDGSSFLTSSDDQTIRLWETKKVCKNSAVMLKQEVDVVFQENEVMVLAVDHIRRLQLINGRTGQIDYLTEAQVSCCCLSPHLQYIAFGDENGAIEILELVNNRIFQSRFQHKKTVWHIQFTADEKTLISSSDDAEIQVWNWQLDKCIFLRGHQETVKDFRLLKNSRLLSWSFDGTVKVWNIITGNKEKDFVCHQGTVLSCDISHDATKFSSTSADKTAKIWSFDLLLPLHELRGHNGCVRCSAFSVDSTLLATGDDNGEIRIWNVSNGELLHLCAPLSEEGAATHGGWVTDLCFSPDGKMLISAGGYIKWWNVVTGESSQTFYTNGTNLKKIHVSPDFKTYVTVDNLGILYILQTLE

| IC50 (Caspase-3) | IC50 [2] | IC50 [3] | IC50 [5] | IC50 [6] | Compound | IC50 [1] | CC50 [4] |
| --- | --- | --- | --- | --- | --- | --- | --- |
| > 99 µM (inactive) | > 99 µM (inactive) | > 99 µM (inactive) |  |  | O=C(c1ccc(Cl)s1)N(Cc1cccnc1)c1nc2c(F)cc(F)cc2s1 | > 99 µM (inactive) |  |
| > 99 µM (inactive) | > 99 µM (inactive) | 39.1 µM (active) |  |  | Cc1ccc(C(=O)Nc2sc3c(c2C#N)CCCCCC3)o1 | > 99 µM (inactive) |  |
|  |  |  | > 20 µM (inactive) | 19.2 µM (active) | COc1ccc(S(=O)(=O)N2CCN(c3ccc4nnc(-c5ccc(F)cc5)n4n3)CC2)cc1 |  | > 50 µM (active) |
